Patent US20180236011A1, “METHODS TO ENHANCE TUMOR-TARGETING BY BACTERIA” (priority 2017, published 2018)

Tests used:
melanoma PDOX [1] = assay: Confocal microscopy of S. typhimurium A1-R-GFP tumor targeting (fluorescent area); assay type: in vivo, Athymic nu/nu nude mice; details: drug combined with S. typhimurium A1-R
Method: GFP-expressing S. typhimurium A1-R bacteria (AntiCancer Inc.,) were grown overnight on LB medium (Fisher Sci., Hanover Park, Ill., USA) and then diluted 1:10 in LB medium. Bacteria were harvested at late-log phase, washed with PBS, and then diluted in PBS. S. typhimurium A1-R was injected intravenously. A total of 5×10^7 CFU S. typhimurium A1-R in 100 μl PBS was administered to each mouse.
(§1) PDOX mouse models were randomized into four groups of 10 mice each: untreated control (n=10); treated with S. typhimurium A1-R (5×10^7 CFU/100 μl, i.v., qw×2, n=10); treated with TEM (25 mg/kg, p.o., qd×14) combined with S. typhimurium A1-R (5×10^7 CFU/[…]., qw×2, n=10); treated with VEM (30 mg/kg, p.o., qd×14) combined with S. typhimurium A1-R (5×10^7CFU/100 μl, i.v., qw×2, n=10). Tumor length and width were measured twice a week. Tumor volume was calculated with the following formula: Tumor volume (mm3)=length (mm)×width (mm)×width (mm)×½. Data are presented as mean±SD. The tumor volume ratio is defined at the tumor volume at any given time point relative to the initial tumor volume.
The FV1000 confocal microscope (Olympus, Tokyo, Japan) was used for high-resolution imaging. Fluorescence images were obtained using the 20×/0.50 UPLAN FLN and 40×/1.3 oil Olympus UPLAN FLN objectives. The tumor fluorescent area was analyzed with UVP software (UVP, Upland, Calif.).

melanoma PDOX [2] = assay: Histological analysis (H&E) of treated PDOX tumors; assay type: in vivo, Athymic nu/nu nude mice; details: each drug combined with S. typhimurium A1-R; much more extensive than S. typhimurium A1-R
Method: as §1
Fresh tumor samples were fixed in 10% formalin and embedded in paraffin before sectioning and staining. Tissue sections (5 μm) were deparaffinized in xylene and rehydrated in an ethanol series. Hematoxylin and eosin (H&E) staining was performed according to standard protocols. Histological examination was performed with a BHS System Microscope (Olympus Corporation, Tokyo, Japan). Images were acquired with INFINITY ANALYZE software (Lumenera Corporation, Ottawa, Canada).

For `Cn1nnc2c(C(N)=O)ncn2c1=O` [TEM, temozolamide], the “S. typhimurium A1-R tumor targeting / accumulation” value (melanoma PDOX [1]; elevated accumulation leading to extensive tumor necrosis) was “promoted S. typhimurium A1-R tumor targeting”, the “S. typhimurium A1-R-GFP fluorescent area compared to S. typhimurium A1-R alone” value (melanoma PDOX [1]; p<0.01) was “significantly increase” and the “tumor necrosis (histology)” value (melanoma PDOX [2]) was “extensive necrosis”.
